# Several values for one entry are separate records, joined by “and”; a condition that tells them apart may be missing. Identical values can stand only once. Like-named read-outs stand apart in the source and are kept apart here.
# Columns and labels:
# [1] = tested on: Daphnia magna; assay type: in vivo; conditions: for body burden at the end of the depuration phase: 12-day depuration; for log BAF*L5%: 21 days of exposure, assuming steady-state; for % reproductive inhibition: Fig. S10; for % inhibition, avr.: average of vessels; for body burden: after 21-day exposure; for removed fraction of accumulated body burden: after 12 days of depuration; for #dead offspring per mother / #live offspring per mother: per vessel; for appearance of mother: vessel 3
# Experimental: To maximize data output, we combined chronic toxicity and bioaccumulation tests in an integrated approach where the chronic toxicity test also served as an uptake phase followed by a depuration/recovery phase (Table S3). This simultaneous bioaccumulation/chronic toxicity test was performed for BNT and DNF. Of the 10 replicates per exposure level, five animals were sampled on day 21 to measure accumulated chemical concentrations and wet weights. The remaining five were transferred to clean media without test chemicals for a 12-day depuration phase under conditions identical with the uptake phase except for the absence of test chemicals. Juvenile counts were recorded daily. At the end of the depuration period, five Daphnia were collected, weighed, and analyzed for body burden (i.e., concentration of test chemical per unit of body weight) using the extraction procedure described in Section 2.7.
# For quantification of body burdens, 5 daphnids were thawed, homogenized in 5 mL Milli-Q water (IKA T-25 digital Ultra-TURRAX) and extracted twice with 2 mL of hexane. The extracts were combined, dried with Na2SO4, concentrated under a nitrogen stream, and spiked with internal standard.
# [2] = tested on: D. magna; conditions: Table S1; footnote not given; cited from earlier work
# [3] = after DNF 1.43 µg/L exposure, 12-day depuration phase
# [4] = after 11.96 µg/L, depuration phase day 1
# [5] = after 11.96 µg/L, depuration phase day 9
compound,measurement,setting,value
"c1ccc2c(c1)ccc1oc3ccc4ccccc4c3c12 [DNF, dinaphtho[2,1-b:1′,2′-d]furan]",body burden at the end of the depuration phase,[1],below the LOQ
same,log BAF*L5%,[1],4.20
same,% reproductive inhibition,"[1]; DNF 1.43 µg/L, entire test (days 1-33)",35%
same,% reproductive inhibition,"[1]; DNF 1.43 µg/L, only depuration phase (days 21-33)",14%
same,% reproductive inhibition,"[1]; DNF 1.43 µg/L, only uptake phase (days 0-21)",57%
same,%offspring mortality,"[1]; DNF 1.43 µg/L, 21-day exposure",42.26%
same,"% inhibition, avr.","[1]; DNF 1.43 µg/L, 21-day exposure",57.5%
same,#average live offspring,"[1]; DNF 1.43 µg/L, 21-day exposure, per surviving mother",31
same,#total live offspring,"[1]; DNF 1.43 µg/L, 21-day exposure, sum of all vessels",276
same,body burden,[1]; CW = 1.4 μg L^–1,6.9 mg kg^–1
same,removed fraction of accumulated body burden,[1],at least 99.57%
same,#average live offspring (depuration phase),[1]; [3],64
same,%offspring mortality (depuration phase),[1]; [3],3.38%
same,#total live offspring (depuration phase),"[1]; after DNF 1.43 µg/L exposure, 12-day depuration phase, sum of all vessels",257
same,observation of mother animal (depuration phase),"[1]; after DNF 1.43 µg/L exposure, vessel 8, depuration day 3",dead
"c1ccc2c(c1)ccc1[nH]c3ccccc3c12 [BCRB, 7H-benzo[c]carbazole]",lowest PNEC*,[2],0.017 µg/L
"c1ccc2c(c1)ccc1sc3ccccc3c12 [BNT, benzo[b]naphtho[1,2-d]thiophene]",%offspring mortality,"[1]; 11.96 µg/L, 21-day exposure",28.01%
same,#total live offspring,"[1]; 11.96 µg/L, all vessels, exposure day 9",32
same,#total live offspring,"[1]; 11.96 µg/L, all vessels, exposure day 12",46
same,#total live offspring,"[1]; 11.96 µg/L, all vessels, exposure day 13",42
same,#total live offspring,"[1]; 11.96 µg/L, all vessels, exposure day 14",15
same,#total live offspring,"[1]; 11.96 µg/L, all vessels, exposure day 15",0
same,#total live offspring,"[1]; 11.96 µg/L, all vessels, exposure day 16",77
same,#total live offspring,"[1]; 11.96 µg/L, all vessels, exposure day 19",56
same,#total live offspring,"[1]; 11.96 µg/L, all vessels, exposure day 20",46
same,#total live offspring,"[1]; 11.96 µg/L, all vessels, exposure day 21",20
same,#total live offspring,"[1]; 11.96 µg/L, all vessels, whole 21-day exposure",329
same,average increase of live offspring,"[1]; 11.96 µg/L, cumulative, exposure day 9",3.2
same,average increase of live offspring,"[1]; 11.96 µg/L, cumulative, exposure day 12",8
same,average increase of live offspring,"[1]; 11.96 µg/L, cumulative, exposure day 13",12
same,average increase of live offspring,"[1]; 11.96 µg/L, cumulative, exposure day 14",14
same,average increase of live offspring,"[1]; 11.96 µg/L, cumulative, exposure day 15",14
same,average increase of live offspring,"[1]; 11.96 µg/L, cumulative, exposure day 16",23
same,average increase of live offspring,"[1]; 11.96 µg/L, cumulative, exposure day 19",29
same,average increase of live offspring,"[1]; 11.96 µg/L, cumulative, exposure day 20",34
same,average increase of live offspring,"[1]; 11.96 µg/L, cumulative, exposure day 21",36
same,"% inhibition, avr.","[1]; 11.96 µg/L, live offspring, 21-day exposure",49.3%
same,#average live offspring,"[1]; 11.96 µg/L, per mother, 21-day exposure",36
same,#dead offspring per mother,"[1]; 11.96 µg/L, exposure day 15",0
same,#live offspring per mother,"[1]; 11.96 µg/L, exposure day 15",0
same,appearance of mother,"[1]; 11.96 µg/L, exposure day 5",very small/pale
same,appearance of mother,"[1]; 11.96 µg/L, exposure day 7",very small
same,status of mother,"[1]; 11.96 µg/L, vessel 4, exposure day 13",dead
same,body burden at the end of the depuration phase,[1],below the LOQ
same,log BAF*L5%,[1],4.58 ± 0.05 and 4.58
same,% reproductive inhibition,"[1]; BNT 4.3 µg/L, entire test (days 1-33)",20%
same,% reproductive inhibition,"[1]; BNT 4.3 µg/L, only depuration phase (days 21-33)",6%
same,% reproductive inhibition,"[1]; BNT 4.3 µg/L, only uptake phase (days 0-21)",36%
same,"% inhibition, avr.","[1]; BNT 4.72 µg/L, 21-day exposure",35.5%
same,% reproductive inhibition,"[1]; BNT 12 µg/L, entire test (days 1-33)",32%
same,% reproductive inhibition,"[1]; BNT 12 µg/L, only depuration phase (days 21-33)",15%
same,% reproductive inhibition,"[1]; BNT 12 µg/L, only uptake phase (days 0-21)",49%
same,%offspring mortality,"[1]; after 11.96 µg/L, 12-day depuration phase",3.94%
same,#total live offspring,"[1]; after 11.96 µg/L, all vessels, depuration phase day 1",0
same,#total live offspring,"[1]; after 11.96 µg/L, all vessels, depuration phase day 2",61
same,#total live offspring,"[1]; after 11.96 µg/L, all vessels, depuration phase day 5",35
same,#total live offspring,"[1]; after 11.96 µg/L, all vessels, depuration phase day 6",63
same,#total live offspring,"[1]; after 11.96 µg/L, all vessels, depuration phase day 7",37
same,#total live offspring,"[1]; after 11.96 µg/L, all vessels, depuration phase day 8",1
same,#total live offspring,"[1]; after 11.96 µg/L, all vessels, depuration phase day 9",0
same,#total live offspring,"[1]; after 11.96 µg/L, all vessels, depuration phase day 12",120
same,#total live offspring,"[1]; after 11.96 µg/L, all vessels, whole 12-day depuration phase",317
same,average increase of live offspring,"[1]; after 11.96 µg/L, cumulative since exposure start, depuration phase day 1",36
same,average increase of live offspring,"[1]; after 11.96 µg/L, cumulative since exposure start, depuration phase day 2",48
same,average increase of live offspring,"[1]; after 11.96 µg/L, cumulative since exposure start, depuration phase day 5",55
same,average increase of live offspring,"[1]; after 11.96 µg/L, cumulative since exposure start, depuration phase day 6",68
same,average increase of live offspring,"[1]; after 11.96 µg/L, cumulative since exposure start, depuration phase day 7",75
same,average increase of live offspring,"[1]; after 11.96 µg/L, cumulative since exposure start, depuration phase day 8",76
same,average increase of live offspring,"[1]; after 11.96 µg/L, cumulative since exposure start, depuration phase day 9",76
same,average increase of live offspring,"[1]; after 11.96 µg/L, cumulative since exposure start, depuration phase day 12",100
same,#average live offspring,"[1]; after 11.96 µg/L, per mother, 12-day depuration phase",63
same,#dead offspring per mother,[1]; [4],0
same,#live offspring per mother,[1]; [4],0
same,#dead offspring per mother,"[1]; after 11.96 µg/L, depuration phase day 8",0
same,#dead offspring per mother,[1]; [5],0
same,#live offspring per mother,[1]; [5],0
same,body burden,[1]; CW = 4.7 μg L^–1,50 mg kg^–1
same,body burden,[1]; CW = 12 μg L^–1,150 mg kg^–1 wet weight
same,removed fraction of accumulated body burden,[1],≥ 99.98%

# Reference: paper PMC12080252, “Daphnia magna as an Alternative Model for (Simultaneous) Bioaccumulation and Chronic Toxicity Assessment—Controlled Exposure Study Indicates High Hazard of Heterocyclic PAHs” (Environmental Science & Technology, 2025)
